Data set [1] relates to p53-dependent transcription. Kind of data set: p53-dependent transcription in T22 RGC-ΔFos-lacZ cells (primary screen, beta-galactosidase/CPRG). The format is cell-based. Particulars: for Bioactivity (relative to JJ91): p53-dependent transcription in T22 RGC-ΔFos-lacZ cells, JJ91 activity taken as 100%.
Method: T22 RGC-ΔFos-lacZ cells expressing beta-galactosidase under the control of a p53-dependent promoter were used and are described by Lu X, Burbidge S A, Griffin S, and Smith H M in Oncogene. […] DMSO should not exceed 1:100 final concentration in medium. Use an untreated control and a positive control treated with 5 ng/ml actinomycin D. Total volume=100 μl • Remove medium from 96 well plate after 18 h and add 50 μl 1× lysis buffer (Promega) per well • Shake for 1 hour at room temperature (can freeze plate at −80° C. until ready to use) • Add 150 μl CPRG reaction mix per well, • Preparation of 15 ml CPRG reaction mix: • 15 ml 0.1M phosphate buffer, pH7.5 • 300 μl CPRG 4 mg/ml (Boehringer-Mannheim) 80 μl (0.1 M MgCl2/0.1 M β-mercaptoethanol) • Incubate 4 hours at 37° C. in a damp chamber. If colour changes from yellow to pink, this indicates p53 activity • Transfer 100 μl from each well to a new 96 well plate. This prevents cell debris from interfering with absorbance reading.
Fold induction of p53-dependent transcription was measured.
For data set [2], the target named is SirT1 (Homo sapiens (Human), UniProt Q96EB6). Put plainly: In vitro deacetylation assay (Fluor de Lys SirT1 Fluorescent Activity Assay). The format is biochemical. To be noted: FdL substrate 7 μM, NAD+ 1 mM, 37° C., 1 hour; read-out: SIRT1 inhibition IC50.
Method: Enzymatic SirT1 assays were carried out using purified components in the Fluor de Lys Fluorescent Assay Systems (Biomol kit AK555) and following the manufacturers instructions. […] Reactions were carried out at 37° C. for 1 hour.
Deacetylation and developer reactions were carried out for 1 hour at 37° C.
Data set [3] deals with BL2 Burkitt lymphoma xenograft tumours. Put plainly: BL2 Burkitt lymphoma xenograft tumours in SCID mice. Format: in vivo. Particulars: 92 mg/kg daily by intraperitoneal injection, measured to day 11. On the procedure:
Referring to FIG. 7, BL2 Burkitt lymphoma xenograft tumours in SCID mice were established for 7 days until tumours were palpable. […] Tumour sizes were measured on the day of injection (day 1) and on days 4, 8 and 11 post-injection.

Data set [4] in a line: Blood levels after administration to mice (LC-MS/MS). Format: in vivo. To be noted: 5 mg/kg, intraperitoneal injection. Here is the method:
Blood levels were determined at the times shown by LC-MS/MS above and the values shown are the means±SD for three determinations.

Data set [5] relates to BL2 Burkitt lymphoma cells. Put plainly: Survival of BL2 Burkitt lymphoma cells. To be noted: 1 μM to 10 μM in 70% cyclodextrin, 2 hours exposure daily for six days. The format is cell-based. On the procedure: At this time, the number of live cells were counted. After this short exposure, cells were washed to remove the compound. This treatment was repeated daily for six days. Experiments were performed in triplicate and standard deviations indicated.

The subject of data set [6] is SKNSH-DDp53 cells. Kind of data set: FACS analysis of neuroblastoma cells with inactivated p53. Format: cell-based. Particulars: 10 μM, 48 hours, SKNSH cells with inactive p53. Here is the method: Neuroblastoma cell lines SKNSH-CMVNeo (with functional p53) and SKNSH-DDp53 (inactivated p53) were used and are described by Smart P, Lane E B, Lane D P, Midgley C, Vojtesek B, Lain S. in Oncogene. 1999 Dec. 2; 18(51):7378-86.
• Seed 50,000 cells per well of a 6 well plate in DMEM-10% FCS Day 2 • Add drugs to cells Day 4 • Add bromodeoxyuridine (BrdU) to 30 μM and incubate cells for 20 minutes. • Remove media from cells and transfer to a 13 ml Falcon tube. Rinse cells with PBS and transfer this also. Trypsinise cells and transfer to tube then finally rinse with PBS again. Once all transferred to tube, pellet cells at 1500 rpm for 5 minutes. • Resuspend cells in 1 ml of PBS and add drop wise to 3 ml of ethanol while vortexing. Incubate for a minimum of 1-2 hours at 4° C. (no maximum). […] Keep on ice in the dark until analysed on the FACScan. • Measure DNA content (propidium iodide fluorescence) and DNA synthesis (BrdU incorporation) by FACScan. […]
Cells were analysed by FACS analysis.
A general note: Flow cytometry measures light scatter and fluorescence of single cells or particles in a stream.

For data set [7], the system named is p53. Put plainly: Western blotting of MCF-7 cell extracts. The format is cell-based. To be noted: MCF-7 cells, 10 μM. On the procedure: • Seed 50,000 cells per well of a 6 well plate in DMEM-10% FCS Day 2 • Add drugs to cells Day 4 • Add bromodeoxyuridine (BrdU) to 30 μM and incubate cells for 20 minutes. • Remove media from cells and transfer to a 13 ml Falcon tube. Rinse cells with PBS and transfer this also. Trypsinise cells and transfer to tube then finally rinse with PBS again. Once all transferred to tube, pellet cells at 1500 rpm for 5 minutes. • Resuspend cells in 1 ml of PBS and add drop wise to 3 ml of ethanol while vortexing. Incubate for a minimum of 1-2 hours at 4° C. (no maximum). Day 5 • Pellet by centrifugation at 2,500 rpm for 5 minutes then pour off supernatant. • Prepare 2 ml fresh pepsin solution per tube at 1 mg/ml in 30 mM HCl (pH 1.5) and prewarm to 37° C. • Add 2 ml prewarmed pepsin solution to each tube and mix for 30 mins at 37° C. • Pellet by centrifugation at 2500 rpm for 5 minutes then pour off supernatant (pellets will be clear) • Add 1 ml 2M HCl for 15-20 mins at room temperature (stock bottle is 11.6 M). • Timing is critical—incubating for long periods results in broad DNA peaks. • Top up with PBS then pellet as before. • Wash again with PBS then once in antibody buffer, pelleting cells each time. • Antibody buffer: PBS, 0.5% BSA, 0.5% Tween-20 • Resuspend pellet into 200 μl of Becton Dickinson anti-BrdU antibody diluted 1:50 in antibody buffer. Incubate for 1 h at room temperature. • Wash in PBS and pellet cells. • Resuspend pellet in 200 μl Sigma FITC antibody (#3008) diluted 1:64 in antibody buffer. Incubate for 30 min at room temperature in the dark to prevent the antibody fading. • Wash in PBS and pellet cells. • Resuspend final pellet in 500 μl PBS containing 25 μg/ml propidium iodide counter stain. Keep on ice in the dark until analysed on the FACScan. • Measure DNA content (propidium iodide fluorescence) and DNA synthesis (BrdU incorporation) by FACScan. 3. […]
Levels of the p53 downstream target p21 are increased Actin was analysed as a loading control.
(In general: In western blotting, separated proteins are transferred to a membrane and probed.)

Molecules are shown by their SMILES. Structures can show the parent of a compound that is named as a salt.

SirT1, sequence (Q96EB6 whole entry): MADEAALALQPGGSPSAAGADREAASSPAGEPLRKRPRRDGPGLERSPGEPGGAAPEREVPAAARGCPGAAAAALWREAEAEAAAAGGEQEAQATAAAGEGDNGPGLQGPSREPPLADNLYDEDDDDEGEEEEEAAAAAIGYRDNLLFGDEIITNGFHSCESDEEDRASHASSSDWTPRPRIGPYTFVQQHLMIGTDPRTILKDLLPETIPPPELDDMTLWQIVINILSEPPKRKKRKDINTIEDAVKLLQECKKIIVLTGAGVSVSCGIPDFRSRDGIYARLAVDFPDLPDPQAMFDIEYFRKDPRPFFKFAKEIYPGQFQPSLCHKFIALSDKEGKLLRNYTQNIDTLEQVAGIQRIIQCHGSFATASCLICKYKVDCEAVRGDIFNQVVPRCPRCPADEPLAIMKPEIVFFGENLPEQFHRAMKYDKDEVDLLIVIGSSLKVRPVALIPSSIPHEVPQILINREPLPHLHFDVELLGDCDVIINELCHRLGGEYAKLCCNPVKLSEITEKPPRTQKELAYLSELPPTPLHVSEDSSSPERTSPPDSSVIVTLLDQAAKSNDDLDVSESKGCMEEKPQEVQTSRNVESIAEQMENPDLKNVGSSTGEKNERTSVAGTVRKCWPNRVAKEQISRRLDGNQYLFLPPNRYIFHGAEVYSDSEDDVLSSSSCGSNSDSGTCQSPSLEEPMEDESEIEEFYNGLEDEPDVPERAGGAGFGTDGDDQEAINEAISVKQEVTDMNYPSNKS

As for `CC(C)C(=O)Nc1ccc(NC(=S)NC(=O)c2ccc(C(C)(C)C)cc2)cc1` [Compound 7322366], the “Bioactivity (relative to JJ91)” value in data set [1] is listed as “Active (81.2%)”.
For the compound `CN(C)CCCCC(=O)Nc1ccc(NC(=O)NC(=O)c2ccc(C(C)(C)C)cc2)cc1` [Compound 24, 5-Dimethylamino-pentanoic acid {4-[3-(4-tert-butyl-benzoyl)-ureido]-phenyl}-amide hydrochloride], the half-maximal inhibitory concentration (IC50) (usually the concentration that gives 50% inhibition) in data set [2] was 29 µM.
Regarding `CC(=O)Nc1ccc(NC(=S)NC(=O)c2ccc(C(C)(C)C)cc2)cc1` [JJ91, N-{4-[3-(4-tert-Butyl-benzoyl)-thioureido]-phenyl}-acetamide], the “growth of BL2 xenograft tumours” value in data set [3] was “reduces growth of BL2 xenograft tumours”. Also, in data set [4], the concentrations in blood entry is recorded as “reach micromolar concentrations in blood” and the “weight or behavioural changes” value is “do not cause significant weight or behavioural changes”. The half-life (as a rule, the time in which the quantity being followed falls by half) in data set [4] (mouse, ip, blood) was around 1.3 h. The BL2 cell survival result in data set [5] was “largely reduced”. Further, the “effects on DNA synthesis and cell death” value in data set [6] is “not observed”. Moreover, in data set [7], the “levels of the p53 downstream target p21” value was “increased” and the p53 levels result is on record as “rapidly increased”. The “levels of p53 phosphoserine-15” value in data set [7] (compared with mitomycin C 10 μM) was “not as high as those observed with the genotoxic gent mitomycin C”. In data set [1] (T22 RGC-ΔFos-lacZ cells treated 16 hours), the “p53 transcription factor function” value was “activates p53's transcription factor function”.
`CC(C)(C)c1ccc(C(=O)NC(=S)Nc2ccc(NC(=O)CCCCN3CCOCC3)cc2)cc1.Cl` [JH156HCl]: the “Bioactivity (relative to JJ91)” value in data set [1] is listed as “Active (59.6%)”.
With `CC(C)(C)OC(=O)Nc1ccc(NC(=S)NC(=O)c2ccc(C(C)(C)C)cc2)cc1` [Compound 21, {4-[3-(4-tert-Butyl-benzoyl)-thioureido]-phenyl}-carbamic acid tert-butyl ester], the “activity in the p53 activation assay (in words)” value in data set [1] was “very good activity”.
With `CN(C)CCCCCCCC(=O)Nc1ccc(NC(=S)NC(=O)c2ccc(C(C)(C)C)cc2)cc1` [Compound 7, 8-Dimethylamino-octanoic acid {4-[3-(4-tert-butyl-benzoyl)-thioureido]-phenyl}-amide hydrochloride], in data set [2], the IC50 stood at 25 ± 10 µM.
Turning to `CC(C)(C)c1ccc(C(=O)NC(=S)Nc2ccc(NC(=O)c3ccccc3)cc2)cc1` [JH151], the “Bioactivity (relative to JJ91)” value in data set [1] is listed as “Active (106.1%)”.
On to `CC(C)(C)c1ccc(C(=O)NC(=S)Nc2ccc(NC(=O)CCCCN3CCOCC3)cc2)cc1` [JH156], for which, in data set [1], the “Bioactivity (relative to JJ91)” value is “Active (75.4%)”.
Take `CC(C)(C)c1ccc(C(=O)NC(=S)Nc2ccc(NC(=O)CCCCBr)cc2)cc1` [JH140, 5-bromo-pentanoic acid {4-[3-(4-tert-butyl-benzoyl)-thioureido]-phenyl}-amide]: the “Bioactivity (relative to JJ91)” value in data set [1] was “Active (87.5%)”.
On to `CC(C)(C)c1ccc(C(=O)NC(=S)Nc2ccc(N)cc2)cc1` [JH129, 1-(4-Amino-phenyl)-3-(4-tert-butyl-benzoyl)-thiourea], for which, in data set [1], the “Bioactivity (relative to JJ91)” value is on record as “Active (<)”.
Consider `CN(C)CCCCCC(=O)Nc1ccc(NC(=S)NC(=O)c2ccc(C(C)(C)C)cc2)cc1` [Compound 6, 6-Dimethylamino-hexanoic acid {4-[3-(4-tert-butyl-benzoyl)-thioureido]-phenyl}-amide hydrochloride], for which the IC50 in data set [2] turned out to be 16 ± 3 µM.
Regarding `CN(C)CCOCCOCCOCCOCCOCC(=O)Nc1ccc(NC(=S)NC(=O)c2ccc(C(C)(C)C)cc2)cc1` [Compound 8, N-{4-[3-(4-tert-Butyl-benzoyl)-thioureido]-phenyl}-2-[2-(2-{2-[2-(2-dimethylamino-ethoxy)-ethoxy]-ethoxy}-ethoxy)-ethoxy]-acetamide hydrochloride], the half-maximal inhibitory concentration (IC50) in data set [2] was above 60 µM.
The same measure, in the same setting: the value for `CN(C)CCCC(=O)Nc1ccc(NC(=S)NC(=O)c2ccc(C(C)(C)C)cc2)cc1` [Compound 5, N-{4-[3-(4-tert-Butyl-benzoyl)-thioureido]-phenyl}-4-dimethylamino-butyramide hydrochloride] was 32 ± 9 µM.
